# From patent US12427134B2, “Methods of reducing the risk of cardiovascular events in a subject with atrial fibrillation and/or atrial flutter” (priority 2019, dated 2025)
# Test system: hypertriglyceridemic patients with cardiovascular disease or at high risk for cardiovascular disease
# Test: REDUCE-IT: treatment-emergent adverse events and serious adverse events (safety population)
# [1] = patients taking ezetimibe at baseline
smiles,measurement,setting,value
"CC/C=C\C/C=C\C/C=C\C/C=C\C/C=C\CCCC(=O)OCC [AMR101, eicosapentaenoic acid ethyl ester]","Study drug-related TEAE leading to study drug withdrawal - Gastroesophageal reflux disease, % patients","Safety population, N = 4089",(0.1) %
same,"Study drug-related TEAE leading to study drug withdrawal - Gastroesophageal reflux disease, n patients","Safety population, N = 4089",5
same,"Study drug-related TEAE leading to study drug withdrawal - Gastrointestinal disorders (SOC), % patients","Safety population, N = 4089",(2.4) %
same,"Study drug-related TEAE leading to study drug withdrawal - Gastrointestinal disorders (SOC), n patients","Safety population, N = 4089",97
same,"Study drug-related TEAE leading to study drug withdrawal - Hypersensitivity, % patients","Safety population, N = 4089",(0.1) %
same,"Study drug-related TEAE leading to study drug withdrawal - Hypersensitivity, n patients","Safety population, N = 4089",3
same,"Study drug-related TEAE leading to study drug withdrawal - Immune system disorders (SOC), % patients","Safety population, N = 4089",(0.1) %
same,"Study drug-related TEAE leading to study drug withdrawal - Immune system disorders (SOC), n patients","Safety population, N = 4089",4
same,"Study drug-related TEAE leading to study drug withdrawal - Muscle spasms, % patients","Safety population, N = 4089",(0.0) %
same,"Study drug-related TEAE leading to study drug withdrawal - Muscle spasms, n patients","Safety population, N = 4089",0
same,"Study drug-related TEAE leading to study drug withdrawal - Musculoskeletal and connective tissue disorders (SOC), % patients","Safety population, N = 4089",(0.3) %
same,"Study drug-related TEAE leading to study drug withdrawal - Musculoskeletal and connective tissue disorders (SOC), n patients","Safety population, N = 4089",13
same,"Study drug-related TEAE leading to study drug withdrawal - Nausea, % patients","Safety population, N = 4089",(0.4) %
same,"Study drug-related TEAE leading to study drug withdrawal - Nausea, n patients","Safety population, N = 4089",16
same,"Study drug-related TEAE leading to study drug withdrawal - Pruritus generalized, % patients","Safety population, N = 4089",(0.1) %
same,"Study drug-related TEAE leading to study drug withdrawal - Pruritus generalized, n patients","Safety population, N = 4089",3
same,"Study drug-related TEAE leading to study drug withdrawal - Pruritus, % patients","Safety population, N = 4089",(0.0) %
same,"Study drug-related TEAE leading to study drug withdrawal - Pruritus, n patients","Safety population, N = 4089",1
same,"Study drug-related TEAE leading to study drug withdrawal - Rash, % patients","Safety population, N = 4089",(0.1) %
same,"Study drug-related TEAE leading to study drug withdrawal - Rash, n patients","Safety population, N = 4089",3
same,"Study drug-related TEAE leading to study drug withdrawal - Skin and subcutaneous disorders (SOC), % patients","Safety population, N = 4089",(0.4) %
same,"Study drug-related TEAE leading to study drug withdrawal - Skin and subcutaneous disorders (SOC), n patients","Safety population, N = 4089",16
same,"Study drug-related TEAE leading to study drug withdrawal - Skin odor abnormal, % patients","Safety population, N = 4089",(0.1) %
same,"Study drug-related TEAE leading to study drug withdrawal - Skin odor abnormal, n patients","Safety population, N = 4089",3
same,"Study drug-related TEAE leading to study drug withdrawal - Vomiting, % patients","Safety population, N = 4089",(0.1) %
same,"Study drug-related TEAE leading to study drug withdrawal - Vomiting, n patients","Safety population, N = 4089",3
same,"Study drug-related TEAE: Arthralgia, %","Safety population, N = 4089",(0.6) %
same,"Study drug-related TEAE: Diarrhea, %","Safety population, N = 4089",(2.7) %
same,"Study drug-related TEAE: Dyspepsia, %","Safety population, N = 4089",(0.4) %
same,"Study drug-related TEAE: Eructation, %","Safety population, N = 4089",(0.9) %
same,"Study drug-related TEAE: Flatulence, %","Safety population, N = 4089",(0.8) %
same,"Study drug-related TEAE: Gastrointestinal disorders, %","Safety population, N = 4089",(7.4) %
same,"Study drug-related TEAE: Musculoskeletal and connective tissue disorders, %","Safety population, N = 4089",(1.4) %
same,"Study drug-related TEAE: Nausea, %","Safety population, N = 4089",(0.8) %
same,Subjects with at Least One TEAE,"Safety population, N = 4089",3343 (81.8%) n (%)
same,"TEAE Leading to Withdrawal of Study Drug, %","Safety population, N = 4089",(7.9) %
same,"TEAE: Anemia, %","Safety population, N = 4089",(4.7) %
same,"TEAE: Angina pectoris, %","Safety population, N = 4089",(4.9) %
same,"TEAE: Arthralgia, %","Safety population, N = 4089",(7.7) %
same,"TEAE: Atrial fibrillation, %","Safety population, N = 4089",(5.3) %
same,"TEAE: Back pain, %","Safety population, N = 4089",(8.2) %
same,"TEAE: Blood and lymphatic system disorders, %","Safety population, N = 4089",(7.9) %
same,"TEAE: Bronchitis, %","Safety population, N = 4089",(7.5) %
same,"TEAE: Cardiac disorders, %","Safety population, N = 4089",(22.3) %
same,"TEAE: Cataract, %","Safety population, N = 4089",(5.7) %
same,"TEAE: Chest pain, %","Safety population, N = 4089",(6.7) %
same,"TEAE: Constipation, %","Safety population, N = 4089",(5.4) %
same,"TEAE: Cough, %","Safety population, N = 4089",(5.9) %
same,"TEAE: Diabetes mellitus, %","Safety population, N = 4089",(4.1) %
same,"TEAE: Diarrhea, %","Safety population, N = 4089",(9.0) %
same,"TEAE: Dizziness, %","Safety population, N = 4089",(5.7) %
same,"TEAE: Dyspnea, %","Safety population, N = 4089",(6.2) %
same,"TEAE: Edema peripheral, %","Safety population, N = 4089",(6.5) %
same,"TEAE: Eye disorders, %","Safety population, N = 4089",(11.7) %
same,"TEAE: Fall, %","Safety population, N = 4089",(3.6) %
same,"TEAE: Fatigue, %","Safety population, N = 4089",(5.6) %
same,"TEAE: Gastroesophageal reflux disease, %","Safety population, N = 4089",(3.0) %
same,"TEAE: Gastrointestinal disorders, %","Safety population, N = 4089",(33.0) %
same,"TEAE: General disorders and administration site conditions, %","Safety population, N = 4089",(25.2) %
same,"TEAE: Gout, %","Safety population, N = 4089",(4.2) %
same,"TEAE: Headache, %","Safety population, N = 4089",(4.2) %
same,"TEAE: Hypertension, %","Safety population, N = 4089",(7.8) %
same,"TEAE: Infections and infestations, %","Safety population, N = 4089",(44.6) %
same,"TEAE: Influenza, %","Safety population, N = 4089",(6.4) %
same,"TEAE: Injury, poisoning, and procedural complications, %","Safety population, N = 4089",(18.3) %
same,"TEAE: Insomnia, %","Safety population, N = 4089",(3.0) %
same,"TEAE: Metabolism and nutrition disorders, %","Safety population, N = 4089",(23.3) %
same,"TEAE: Muscle spasms, %","Safety population, N = 4089",(2.5) %
same,"TEAE: Musculoskeletal and connective tissue disorders, %","Safety population, N = 4089",(35.9) %
same,"TEAE: Musculoskeletal pain, %","Safety population, N = 4089",(4.3) %
same,"TEAE: Myalgia, %","Safety population, N = 4089",(3.3) %
same,"TEAE: Nasopharyngitis, %","Safety population, N = 4089",(7.7) %
same,"TEAE: Nausea, %","Safety population, N = 4089",(4.6) %
same,"TEAE: Nervous system disorders, %","Safety population, N = 4089",(24.6) %
same,"TEAE: Non-cardiac chest pain, %","Safety population, N = 4089",(3.9) %
same,"TEAE: Osteoarthritis, %","Safety population, N = 4089",(5.9) %
same,"TEAE: Pain in extremity, %","Safety population, N = 4089",(5.7) %
same,"TEAE: Pneumonia, %","Safety population, N = 4089",(6.4) %
same,"TEAE: Psychiatric disorders, %","Safety population, N = 4089",(9.1) %
same,"TEAE: Respiratory, thoracic, and mediastinal disorders, %","Safety population, N = 4089",(24.2) %
same,"TEAE: Sinusitis, %","Safety population, N = 4089",(4.1) %
same,"TEAE: Type 2 diabetes mellitus, %","Safety population, N = 4089",(3.6) %
same,"TEAE: Vascular disorders, %","Safety population, N = 4089",(17.3) %
same,"Ventricular extrasystoles TEAE, Event Rate","Safety population, N = 4089",0.7%
same,"Ventricular extrasystoles TEAE, Number of Subjects","Safety population, N = 4089",27
same,"Ventricular fibrillation TEAE, Event Rate","Safety population, N = 4089",0.0%
same,"Ventricular fibrillation TEAE, Number of Subjects","Safety population, N = 4089",0
same,"Ventricular tachycardia TEAE, Event Rate","Safety population, N = 4089",0.3%
same,"Ventricular tachycardia TEAE, Number of Subjects","Safety population, N = 4089",12
same,"TEAE class GI disorders, patients",[1],37.4%
same,"TEAE class general disorders and administration site conditions, patients",[1],26.3%
same,"TEAE class musculoskeletal and connective tissue disorders, patients",[1],41.2%
same,"TEAE class nervous system disorders, patients",[1],23.7%
same,"TEAE class respiratory, thoracic, and mediastinal disorders, patients",[1],27.5%
